Measured values from ChEMBL document CHEMBL4823306, “Synthesis of D-π-A type benzothiazole-pyridinium salt composite and its application as photo-degradation agent for amyloid fibrils” (Bioorg Med Chem Lett, 2021).
Activity calls are given as the source filed them. The rule behind the calls is not given here.

What was measured:
[1] = system: HeLa; experiment: Phototoxicity in human HeLa cells assessed as reduction in cell viability irradiated with UVA-LED measured after 60 mins; format: cell-based; settings: 1 h
[2] = biological target: Amyloid-beta precursor protein (Homo sapiens) (UniProt P05067); experiment: Photo-degradation of Amyloid beta (1 to 42) (unknown origin) assessed as disruption of Co2 induced aggregation at 66.7 uM irradiated with UVA-LED measured after 5 mins by immunoblotting analysis
[3] = system: HeLa; experiment: Dark toxicity in human HeLa cells assessed as reduction in cell viability; format: cell-based
[4] = biological target: Amyloid-beta precursor protein (Homo sapiens) (UniProt P05067); experiment: Photo-degradation of Amyloid beta (1 to 42) (unknown origin) assessed as disruption of Co2 induced aggregation at 66.7 uM irradiated with UVA-LED for 1 hr by immunoblotting analysis

Amyloid-beta precursor protein (Homo sapiens), sequence (P05067 whole entry): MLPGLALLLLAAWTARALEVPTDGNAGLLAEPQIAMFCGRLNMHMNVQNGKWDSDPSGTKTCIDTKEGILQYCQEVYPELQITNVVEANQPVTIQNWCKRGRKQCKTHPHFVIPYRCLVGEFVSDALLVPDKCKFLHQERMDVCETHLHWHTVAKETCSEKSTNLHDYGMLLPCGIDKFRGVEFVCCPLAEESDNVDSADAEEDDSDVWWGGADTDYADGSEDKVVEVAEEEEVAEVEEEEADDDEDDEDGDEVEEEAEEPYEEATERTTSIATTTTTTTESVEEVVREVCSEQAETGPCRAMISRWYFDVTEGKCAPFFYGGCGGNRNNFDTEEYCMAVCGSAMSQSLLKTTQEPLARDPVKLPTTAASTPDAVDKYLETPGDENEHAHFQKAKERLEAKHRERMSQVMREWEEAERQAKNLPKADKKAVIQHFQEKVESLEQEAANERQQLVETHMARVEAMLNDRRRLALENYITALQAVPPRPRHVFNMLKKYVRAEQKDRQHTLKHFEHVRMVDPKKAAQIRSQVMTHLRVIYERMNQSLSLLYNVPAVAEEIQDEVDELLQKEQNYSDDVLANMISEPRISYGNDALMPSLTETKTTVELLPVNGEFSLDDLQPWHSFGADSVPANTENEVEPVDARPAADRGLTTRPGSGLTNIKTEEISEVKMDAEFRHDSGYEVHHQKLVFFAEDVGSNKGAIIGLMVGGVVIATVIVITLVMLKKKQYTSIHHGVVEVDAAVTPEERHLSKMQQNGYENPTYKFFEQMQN

inhibition [2]: Active
inhibition [4]: Active
Structure (SMILES): CC[n+]1ccc(-c2ccc(-c3nc4ccccc4s3)cc2)cc1.[Br-]
Activity [1]: Toxic
Activity [3]: Non-Toxic
